Tested on: 521955-158-R2-J5-PDC complex spheroid growth
Experiment: Anticancer human tumor 521955-158-R2-J5-PDC patient-derived pancreatic carcinoma cell line growth inhibition [AhR]
Details: for viability, T/C: stronger effect = lower value
Text: Multicellular complex tumor spheroid response to aryl hydrocarbon receptor antagonists in combination with a variety of drugs and investigational agents in selected tumor cell lines
The current study was undertaken to assess response to aryl hydrocarbon receptor antagonists in combination with standard-of-care drugs and investigational agents in solid tumor complex spheroid models. Complex spheroids include a stromal component modeled by human endothelial cells (HUVEC) and fibroblasts modeled by human mesenchymal stem cells (MSCs). The concentration ranges selected for each drug and investigational agent were based upon clinically achievable concentrations if the clinical Cmax of the agent was known.
Compounds. The drugs and investigational agents: BAY 2416964 (NSC825713), GNF351 (NSC835774), CH-223191 (NSC835775), CPI-455 (NSC825282), aza-TdCyd (NSC777586), decitabine (NSC127716), belinostat (NSC758774), entinostat (NSC756642), pevonedistat (NSC761192), tazemetostat (NSC777109), talazoparib (NSC765396), olaparib (NSC753686), selinexor (NSC780203), nedisertib (M3814, NSC802822), bortezomib (NSC756655), venetoclax (NSC766270), doxorubicin (NSC123127), elimusertib (BAY189344, NSC800525), ceralasertib (AZD6738, NSC777638), TAK-243 (NSC785004), alisertib (NSC759677), etoposide (NSC141540), topotecan (NSC609699), eribulin (NSC707389), gemcitabine (NSC613327), carboplatin (NSC241240), cisplatin (NSC119875), and SN-38 (NSC673596) were obtained from the National Cancer Institute (NCI) Developmental Therapeutics Program Chemical Repository (32). The FDA-approved anticancer drug set is available from the Developmental Therapeutics Program at https://dtp.cancer.gov/organization/dscb/obtaining/available plates.htm. […] The stock solutions were prepared in dimethyl sulfoxide (DMSO, Sigma-Aldrich, St. Louis, MO, cat. D2650), except for the platinum compounds which were prepared in saline (Quality Biological, Gaithersburg, MD, cat. 114-055-101), at 800-fold the tested concentration and stored at -70 degrees C prior to their use. All drugs and investigational agents were tested over a range starting from a high concentration at or near the clinical Cmax and decreasing in half-log increments. If the clinical Cmax for an agent had not been determined, the highest concentration tested was 10 microM (Table 1).
Cell Culture. All cells were maintained in an incubator at 37 degrees C and 5% CO2 with 95% humidity. The PDC lines were cultured according to standard operating procedures established by the NCI PDMR (https://pdmr.cancer.gov). Briefly, all PDCs were thawed and cultured in Matrigel-coated flasks prepared with a working solution of 1X Ham's F-12 nutrient mix, without supplementation (Invitrogen, Waltham, MA, cat. 11765054), 100 U/mL penicillin-streptomycin (Invitrogen, cat. 15140122), and 2.5% Matrigel (Corning Inc., Corning, NY, cat. 354248) for the first three passages. All PDCs were cultured in complete DMEM/F-12 media containing advanced DMEM/F-12 (Invitrogen, cat. 12634028), 4.9% defined fetal bovine serum, heat inactivated (HyClone Laboratories Inc., Logan, UT, cat. SH30070.03HI), 389 ng/mL hydrocortisone (Sigma-Aldrich, cat. H4001), 9.7 ng/mL human EGF recombinant protein (Invitrogen, cat. PHG0313), 23.4 microg/mL adenine (Sigma-Aldrich, cat. A2786), 97.3 U/mL penicillin-streptomycin (Invitrogen, cat. 15140122), 1.9 mM L-glutamine (Invitrogen, cat. 25030081), and 9.7 microM Y-27632 dihydrochloride (Tocris Bioscience, Bristol, United Kingdom, cat. 1254). The PDCs were cultured in complete DMEM/F12 media without 10 microM Y-27632 dihydrochloride for at least two passages prior to the screen. The established cell lines NCI-H1341 and […] were cultured in DMEM/F-12, HEPES (Invitrogen, cat. 11330032), 5% defined fetal bovine serum (HyClone Laboratories Inc., cat. SH30070.03), ITS premix universal culture supplement [insulin (5 microg/mL), transferrin (5 microg/mL), and selenious acid (5 ng/mL)] […]
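Wherever viability, T/C is given: spheroids mix tumor cells with HUVEC endothelium and human MSC stroma; luminescence taken as viability surrogate after a week of drug exposure.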

Cc1cncc(-c2nc(NCCc3c[nH]c4ccccc34)c3ncn(C(C)C)c3n2)c1
IC50 (compound alone, run of 06/06/2022): > 10 µM

O=C(c1cc(Cc2n[nH]c(=O)c3ccccc23)ccc1F)N1CCN(C(=O)C2CC2)CC1 + Cc1ccccc1N=Nc1ccc(NC(=O)c2ccnn2C)c(C)c1
IC50 (curve of first compound, second compound 0.1 µM): > 10 µM
IC50 (curve of first compound, second compound 0.316 µM): > 10 µM
IC50 (curve of first compound, second compound 1 µM): > 10 µM
IC50 (curve of first compound, second compound 3.16 µM): > 10 µM
IC50 (curve of first compound, second compound 10 µM): > 10 µM
viability, T/C (second compound 0.1 µM, first compound 0.0316 µM): 101%
viability, T/C (second compound 0.1 µM, first compound 0.1 µM): 83.6%
viability, T/C (second compound 0.1 µM, first compound 0.316 µM): 98.5%
viability, T/C (second compound 0.1 µM, first compound 1 µM): 104%
viability, T/C (second compound 0.1 µM, first compound 3.16 µM): 73.6%
viability, T/C (second compound 0.1 µM, first compound 10 µM): 63.1%
viability, T/C (second compound 0.316 µM, first compound 0.0316 µM): 90%
viability, T/C (second compound 0.316 µM, first compound 0.1 µM): 85.7%
viability, T/C (second compound 0.316 µM, first compound 0.316 µM): 101%
viability, T/C (second compound 0.316 µM, first compound 1 µM): 88.6%
viability, T/C (second compound 0.316 µM, first compound 3.16 µM): 80.8%
viability, T/C (second compound 0.316 µM, first compound 10 µM): 77.8%
viability, T/C (second compound 1 µM, first compound 0.0316 µM): 134%
viability, T/C (second compound 1 µM, first compound 0.1 µM): 107%
viability, T/C (second compound 1 µM, first compound 0.316 µM): 136%
viability, T/C (second compound 1 µM, first compound 1 µM): 89.8%
viability, T/C (second compound 1 µM, first compound 3.16 µM): 93%
viability, T/C (second compound 1 µM, first compound 10 µM): 63.6%
viability, T/C (second compound 3.16 µM, first compound 0.0316 µM): 124%
viability, T/C (second compound 3.16 µM, first compound 0.1 µM): 109%
viability, T/C (second compound 3.16 µM, first compound 0.316 µM): 129%
viability, T/C (second compound 3.16 µM, first compound 1 µM): 106%
viability, T/C (second compound 3.16 µM, first compound 3.16 µM): 118%
viability, T/C (second compound 3.16 µM, first compound 10 µM): 98%
viability, T/C (second compound 10 µM, first compound 0.0316 µM): 141%
viability, T/C (second compound 10 µM, first compound 0.1 µM): 155%
viability, T/C (second compound 10 µM, first compound 0.316 µM): 148%
viability, T/C (second compound 10 µM, first compound 1 µM): 131%
viability, T/C (second compound 10 µM, first compound 3.16 µM): 113%
viability, T/C (second compound 10 µM, first compound 10 µM): 103%

Reference: PubChem BioAssay AID1918998 (Molecular Pharmacology Branch, DTP, NCI, 2023)
